Source: patent publication US4068070A, “α-Cyanoamine compounds and a process for producing the same” (Fuji Chemical Industry Co., Ltd., priority 1974, dated 1978)

Experiments:
Type in all cases: in vivo, mongrel adult dogs
[1] = system: arterial mean blood pressure; experiment: Effects on arterial mean blood pressure
Outline: (§1)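 In pentobarbital-anesthetized open-chest mongrels, aortic root flow and carotid-cannula blood pressure are monitored after i.v. administration.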

coronary sinus out flow = experiment: Effects on coronary sinus out flow
Outline: (§2)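 Intravenous brachial dosing of test compound or active placebo in anesthetized, thoracotomized dogs weighing about 10 kg. Coronary sinus outflow was measured with an electromagnetic flowmeter and oxygen tension with a pO2 electrode after Morawitz cannulation of the sinus.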

heart rate = experiment: Effects on heart rate
Outline: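 Adult mongrel dogs of both sexes were anesthetized with pentobarbital and thoracotomized. Test agents, suspended or dissolved in 0.2% CMC, pH 6 HCl solution or saline, were injected intravenously into the brachial vein. Hemodynamic and coronary sinus parameters were then recorded.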

aortic blood flow = experiment: Effects on aortic blood flow
Outline: as §1

[2] = system: coronary sinus oxygen tension; experiment: Effects on coronary sinus oxygen tension
Outline: as §2

COc1ccc(C(C#N)N2CCN(CC=Cc3ccccc3)CC2)cc1OC (centres unmarked) [Compound D]
Changes (%) of basal values, arterial mean blood pressure ([1]; 2.0 mg/kg i.v., 1 min): +1.6%
Changes (%) of basal values, arterial mean blood pressure ([1]; 2.0 mg/kg i.v., 5 min): -3.0%
Changes (%) of basal values, arterial mean blood pressure ([1]; 2.0 mg/kg i.v., 10 min): -1.5%
Changes (%) of basal values, arterial mean blood pressure ([1]; 2.0 mg/kg i.v., 20 min): -0.5%
Changes (%) of basal values, arterial mean blood pressure ([1]; 2.0 mg/kg i.v., 30 min): 0%
Changes (%) of basal values, arterial mean blood pressure ([1]; 2.0 mg/kg i.v., 40 min): 0%
Changes (%) of basal values, arterial mean blood pressure ([1]; 2.0 mg/kg i.v., imm.): -13.6%
Changes (%) of basal values, arterial mean blood pressure ([1]; 6.0 mg/kg i.v., 1 min): -9.7%
Changes (%) of basal values, arterial mean blood pressure ([1]; 6.0 mg/kg i.v., 5 min): -10.3%
Changes (%) of basal values, arterial mean blood pressure ([1]; 6.0 mg/kg i.v., 10 min): -10.0%
Changes (%) of basal values, arterial mean blood pressure ([1]; 6.0 mg/kg i.v., 20 min): -6.0%
Changes (%) of basal values, arterial mean blood pressure ([1]; 6.0 mg/kg i.v., 30 min): -3.0%
Changes (%) of basal values, arterial mean blood pressure ([1]; 6.0 mg/kg i.v., 40 min): -1.0%
Changes (%) of basal values, arterial mean blood pressure ([1]; 6.0 mg/kg i.v., imm.): -36.1%
Changes (%) of basal values, arterial mean blood pressure ([1]; 20.0 mg/kg i.v., 1 min): -19.7%
Changes (%) of basal values, arterial mean blood pressure ([1]; 20.0 mg/kg i.v., 5 min): -14.4%
Changes (%) of basal values, arterial mean blood pressure ([1]; 20.0 mg/kg i.v., 10 min): -13.5%
Changes (%) of basal values, arterial mean blood pressure ([1]; 20.0 mg/kg i.v., 20 min): -8.3%
Changes (%) of basal values, arterial mean blood pressure ([1]; 20.0 mg/kg i.v., 30 min): -5.1%
Changes (%) of basal values, arterial mean blood pressure ([1]; 20.0 mg/kg i.v., 40 min): -3.1%
Changes (%) of basal values, arterial mean blood pressure ([1]; 20.0 mg/kg i.v., imm.): -45.0%
Effects on arterial mean blood pressure (in words) ([1]; i.v., anesthetized dogs): hypotensive effects being proportioned to their doses which were of long duration
Changes(%) of basal values, coronary sinus out flow (coronary sinus out flow; 2.0 mg/kg i.v., 1 min): +1.6%
Changes(%) of basal values, coronary sinus out flow (coronary sinus out flow; 2.0 mg/kg i.v., 5 min): -3.1%
Changes(%) of basal values, coronary sinus out flow (coronary sinus out flow; 2.0 mg/kg i.v., 10 min): -1.0%
Changes(%) of basal values, coronary sinus out flow (coronary sinus out flow; 2.0 mg/kg i.v., 20 min): 0%
Changes(%) of basal values, coronary sinus out flow (coronary sinus out flow; 2.0 mg/kg i.v., 30 min): 0%
Changes(%) of basal values, coronary sinus out flow (coronary sinus out flow; 2.0 mg/kg i.v., 40 min): 0%
Changes(%) of basal values, coronary sinus out flow (coronary sinus out flow; 2.0 mg/kg i.v., imm.): +6.2%
Changes(%) of basal values, coronary sinus out flow (coronary sinus out flow; 6.0 mg/kg i.v., 1 min): +9.1%
Changes(%) of basal values, coronary sinus out flow (coronary sinus out flow; 6.0 mg/kg i.v., 5 min): -0.2%
Changes(%) of basal values, coronary sinus out flow (coronary sinus out flow; 6.0 mg/kg i.v., 10 min): -0.4%
Changes(%) of basal values, coronary sinus out flow (coronary sinus out flow; 6.0 mg/kg i.v., 20 min): -0.2%
Changes(%) of basal values, coronary sinus out flow (coronary sinus out flow; 6.0 mg/kg i.v., 30 min): 0%
Changes(%) of basal values, coronary sinus out flow (coronary sinus out flow; 6.0 mg/kg i.v., 40 min): 0%
Changes(%) of basal values, coronary sinus out flow (coronary sinus out flow; 6.0 mg/kg i.v., imm.): +23.0%
Changes(%) of basal values, coronary sinus out flow (coronary sinus out flow; 20.0 mg/kg i.v., 1 min): +49.3%
Changes(%) of basal values, coronary sinus out flow (coronary sinus out flow; 20.0 mg/kg i.v., 5 min): +9.1%
Changes(%) of basal values, coronary sinus out flow (coronary sinus out flow; 20.0 mg/kg i.v., 10 min): +8.4%
Changes(%) of basal values, coronary sinus out flow (coronary sinus out flow; 20.0 mg/kg i.v., 20 min): +8.0%
Changes(%) of basal values, coronary sinus out flow (coronary sinus out flow; 20.0 mg/kg i.v., 30 min): +5.7%
Changes(%) of basal values, coronary sinus out flow (coronary sinus out flow; 20.0 mg/kg i.v., 40 min): +3.0%
Changes(%) of basal values, coronary sinus out flow (coronary sinus out flow; 20.0 mg/kg i.v., imm.): +66.2%
Effects on coronary sinus out flow (in words) (coronary sinus out flow; i.v., anesthetized dogs): a marked increasing effect on coronary sinus out flow, which was proportioned to doses thereof and of long duration
Changes(%) of basal values, heart rate (heart rate; 2.0 mg/kg i.v., 1 min): +1.0%
Changes(%) of basal values, heart rate (heart rate; 2.0 mg/kg i.v., 5 min): 0%
Changes(%) of basal values, heart rate (heart rate; 2.0 mg/kg i.v., 10 min): 0%
Changes(%) of basal values, heart rate (heart rate; 2.0 mg/kg i.v., 20 min): 0%
Changes(%) of basal values, heart rate (heart rate; 2.0 mg/kg i.v., 30 min): 0%
Changes(%) of basal values, heart rate (heart rate; 2.0 mg/kg i.v., 40 min): 0%
Changes(%) of basal values, heart rate (heart rate; 2.0 mg/kg i.v., imm.): -0.6%
Changes(%) of basal values, heart rate (heart rate; 6.0 mg/kg i.v., 1 min): +1.5%
Changes(%) of basal values, heart rate (heart rate; 6.0 mg/kg i.v., 5 min): -0.9%
Changes(%) of basal values, heart rate (heart rate; 6.0 mg/kg i.v., 10 min): -1.6%
Changes(%) of basal values, heart rate (heart rate; 6.0 mg/kg i.v., 20 min): -1.0%
Changes(%) of basal values, heart rate (heart rate; 6.0 mg/kg i.v., 30 min): -0.5%
Changes(%) of basal values, heart rate (heart rate; 6.0 mg/kg i.v., 40 min): 0%
Changes(%) of basal values, heart rate (heart rate; 6.0 mg/kg i.v., imm.): -1.5%
Changes(%) of basal values, heart rate (heart rate; 20.0 mg/kg i.v., 1 min): -3.1%
Changes(%) of basal values, heart rate (heart rate; 20.0 mg/kg i.v., 5 min): -3.5%
Changes(%) of basal values, heart rate (heart rate; 20.0 mg/kg i.v., 10 min): -3.9%
Changes(%) of basal values, heart rate (heart rate; 20.0 mg/kg i.v., 20 min): -2.8%
Changes(%) of basal values, heart rate (heart rate; 20.0 mg/kg i.v., 30 min): -1.3%
Changes(%) of basal values, heart rate (heart rate; 20.0 mg/kg i.v., 40 min): -0.5%
Changes(%) of basal values, heart rate (heart rate; 20.0 mg/kg i.v., imm.): -14.5%
Effects on heart rate (in words) (heart rate; i.v., anesthetized dogs): a slight negative chronotropic effect
Changes (%) of basal values, aortic blood flow (aortic blood flow; 2.0 mg/kg i.v., 1 min): +3.3%
Changes (%) of basal values, aortic blood flow (aortic blood flow; 2.0 mg/kg i.v., 5 min): -0.8%
Changes (%) of basal values, aortic blood flow (aortic blood flow; 2.0 mg/kg i.v., 10 min): 0%
Changes (%) of basal values, aortic blood flow (aortic blood flow; 2.0 mg/kg i.v., 20 min): 0%
Changes (%) of basal values, aortic blood flow (aortic blood flow; 2.0 mg/kg i.v., 30 min): 0%
Changes (%) of basal values, aortic blood flow (aortic blood flow; 2.0 mg/kg i.v., 40 min): 0%
Changes (%) of basal values, aortic blood flow (aortic blood flow; 2.0 mg/kg i.v., imm.): +8.3%
Changes (%) of basal values, aortic blood flow (aortic blood flow; 6.0 mg/kg i.v., 1 min): +3.3%
Changes (%) of basal values, aortic blood flow (aortic blood flow; 6.0 mg/kg i.v., 5 min): -2.7%
Changes (%) of basal values, aortic blood flow (aortic blood flow; 6.0 mg/kg i.v., 10 min): +0.7%
Changes (%) of basal values, aortic blood flow (aortic blood flow; 6.0 mg/kg i.v., 20 min): +0.5%
Changes (%) of basal values, aortic blood flow (aortic blood flow; 6.0 mg/kg i.v., 30 min): 0%
Changes (%) of basal values, aortic blood flow (aortic blood flow; 6.0 mg/kg i.v., 40 min): 0%
Changes (%) of basal values, aortic blood flow (aortic blood flow; 6.0 mg/kg i.v., imm.): +12.0%
Changes (%) of basal values, aortic blood flow (aortic blood flow; 20.0 mg/kg i.v., 1 min): +16.3%
Changes (%) of basal values, aortic blood flow (aortic blood flow; 20.0 mg/kg i.v., 5 min): -3.8%
Changes (%) of basal values, aortic blood flow (aortic blood flow; 20.0 mg/kg i.v., 10 min): -4.0%
Changes (%) of basal values, aortic blood flow (aortic blood flow; 20.0 mg/kg i.v., 20 min): -3.4%
Changes (%) of basal values, aortic blood flow (aortic blood flow; 20.0 mg/kg i.v., 30 min): -1.8%
Changes (%) of basal values, aortic blood flow (aortic blood flow; 20.0 mg/kg i.v., 40 min): -0.3%
Changes (%) of basal values, aortic blood flow (aortic blood flow; 20.0 mg/kg i.v., imm.): +27.4%
Effects on aortic blood flow (in words) (aortic blood flow; i.v., anesthetized dogs): an increase in blood flow immediately after administration, followed by a decrease in blood flow
Changes(%) of basal values, coronary sinus oxygen tension ([2]; 2.0 mg/kg i.v., 1 min): +2.7%
Changes(%) of basal values, coronary sinus oxygen tension ([2]; 2.0 mg/kg i.v., 5 min): +0.5%
Changes(%) of basal values, coronary sinus oxygen tension ([2]; 2.0 mg/kg i.v., 10 min): -1.0%
Changes(%) of basal values, coronary sinus oxygen tension ([2]; 2.0 mg/kg i.v., 20 min): -0.5%
Changes(%) of basal values, coronary sinus oxygen tension ([2]; 2.0 mg/kg i.v., 30 min): 0%
Changes(%) of basal values, coronary sinus oxygen tension ([2]; 2.0 mg/kg i.v., 40 min): 0%
Changes(%) of basal values, coronary sinus oxygen tension ([2]; 2.0 mg/kg i.v., imm.): +6.7%
Changes(%) of basal values, coronary sinus oxygen tension ([2]; 6.0 mg/kg i.v., 1 min): +14.0%
Changes(%) of basal values, coronary sinus oxygen tension ([2]; 6.0 mg/kg i.v., 5 min): +5.8%
Changes(%) of basal values, coronary sinus oxygen tension ([2]; 6.0 mg/kg i.v., 10 min): +1.0%
Changes(%) of basal values, coronary sinus oxygen tension ([2]; 6.0 mg/kg i.v., 20 min): -1.0%
Changes(%) of basal values, coronary sinus oxygen tension ([2]; 6.0 mg/kg i.v., 30 min): 0%
Changes(%) of basal values, coronary sinus oxygen tension ([2]; 6.0 mg/kg i.v., 40 min): 0%
Changes(%) of basal values, coronary sinus oxygen tension ([2]; 6.0 mg/kg i.v., imm.): +23.8%
Changes(%) of basal values, coronary sinus oxygen tension ([2]; 20.0 mg/kg i.v., 1 min): +43.8%
Changes(%) of basal values, coronary sinus oxygen tension ([2]; 20.0 mg/kg i.v., 5 min): -21.2%
Changes(%) of basal values, coronary sinus oxygen tension ([2]; 20.0 mg/kg i.v., 10 min): +8.4%
Changes(%) of basal values, coronary sinus oxygen tension ([2]; 20.0 mg/kg i.v., 20 min): +3.2%
Changes(%) of basal values, coronary sinus oxygen tension ([2]; 20.0 mg/kg i.v., 30 min): +2.0%
Changes(%) of basal values, coronary sinus oxygen tension ([2]; 20.0 mg/kg i.v., 40 min): +0.2%
Changes(%) of basal values, coronary sinus oxygen tension ([2]; 20.0 mg/kg i.v., imm.): +60.3%
Effects on coronary sinus oxygen tension (in words) ([2]; i.v., anesthetized dogs): a significant increase in coronary sinus oxygen tension, effect of which was of long duration
